This passage reports mutagenic call results from PubChem BioAssay AID1259407 (Chemical Carcinogenesis Research Information System (CCRIS), 2018).

The source made the active and inactive calls. No rule for the calls is given here.

In this data set the test system is CCRIS mutagenicity, Ames/micronucleus/aberration tests. Put plainly: CCRIS mutagenicity studies.
The mark [1] stands for this setting: Test System: AMES SALMONELLA TYPHIMURIUM, Strain/Indicator: TA98, Metabolic Activation: NONE, Method: PREINCUBATION
Where [2] appears, read: Test System: AMES SALMONELLA TYPHIMURIUM, Strain/Indicator: TA98, Metabolic Activation: NONE, Method: STANDARD PLATE.
The mark [3] stands for this setting: Test System: AMES SALMONELLA TYPHIMURIUM, Strain/Indicator: TA100, Metabolic Activation: NONE, Method: PREINCUBATION
[4] abbreviates: Test System: AMES SALMONELLA TYPHIMURIUM, Strain/Indicator: TA100, Metabolic Activation: NONE, Method: STANDARD PLATE.

In the case of `CC[C@]1(O)C[C@@H]2CN(CCc3c([nH]c4ccccc34)[C@@](C(=O)OC)(c3cc4c(cc3OC)N(C)[C@H]3[C@@](O)(C(=O)OC)[C@H](OC(C)=O)[C@]5(CC)C=CCN6CC[C@]43[C@@H]65)C2)C1`, the mutagenic call reads like this: (End Point: IN VITRO CHROMOSOMAL ABERRATIONS, Test System: CHL/IU CELLS, Metabolic Activation: NONE) “active; positive (ploidy changes)”; (End Point: IN VITRO MICRONUCLEUS, Test System: CHL/IU CELLS, Metabolic Activation: NONE) “active; positive”; (End Point: IN VITRO MICRONUCLEUS, Test System: CHO CELLS, Metabolic Activation: RAT, LIVER, S-9, AROCLOR 1254) “active; positive”; (End Point: IN VITRO MICRONUCLEUS, Test System: HAMSTER V79 CELLS, Metabolic Activation: NONE) “active; positive”; (End Point: IN VITRO MICRONUCLEUS, Test System: HUMAN PERIPHERAL BLOOD LYMPHOCYTES (FEMALES, AGE LESS THAN 30 AND AGE GREATER THAN 50 YR), Metabolic Activation: NONE) “micronuclei elevated in elderly donors”; (End Point: IN VITRO MICRONUCLEUS, Test System: V79 CELLS, Metabolic Activation: NONE) “active; positive”. Also, the mutagenic call by setting is: (End Point: IN VIVO CHROMOSOMAL ABERRATIONS, Test System: BONE MARROW CELLS, Species: MOUSE, Strain/Sex: SWISS/MALE, FEMALE, Route: IP) “active; positive”; (End Point: IN VIVO MICRONUCLEUS, Test System: POLYCHROMATIC ERYTHROCYTES, Species: MOUSE, Strain/Sex: ALBINO SWISS/MALE, Route: IP) “active; positive”; (End Point: IN VIVO MICRONUCLEUS, Test System: POLYCHROMATIC ERYTHROCYTES, Species: MOUSE, Strain/Sex: SWISS/MALE, FEMALE, Route: IP) “active; positive”; under setting [1], “inactive; negative”; under setting [2], “inactive; negative”; (Test System: AMES SALMONELLA TYPHIMURIUM, Strain/Indicator: TA98, Metabolic Activation: S-9, Method: PREINCUBATION) “inactive; negative”. For the same molecule, the mutagenic call runs as follows: (Test System: AMES SALMONELLA TYPHIMURIUM, Strain/Indicator: TA98, Metabolic Activation: S-9, Method: STANDARD PLATE) “inactive; negative”; under setting [3], “inactive; negative”; under setting [4], “inactive; negative”; (Test System: AMES SALMONELLA TYPHIMURIUM, Strain/Indicator: TA100, Metabolic Activation: S-9, Method: PREINCUBATION) “inactive; negative”; (Test System: AMES SALMONELLA TYPHIMURIUM, Strain/Indicator: TA100, Metabolic Activation: S-9, Method: STANDARD PLATE) “inactive; negative”; (Test System: AMES SALMONELLA TYPHIMURIUM, Strain/Indicator: TA1537, Metabolic Activation: S-9, Method: STANDARD PLATE) “inactive; negative”. The mutagenic call by setting is: (Test System: E. COLI, Strain/Indicator: WP2 (HCR), Metabolic Activation: NONE, Method: STANDARD PLATE) “inactive; negative”; (Test System: E. COLI, Strain/Indicator: WP2 (HCR), Metabolic Activation: S-9, Method: STANDARD PLATE) “inactive; negative”; (Test System: MOUSE LYMPHOMA, Strain/Indicator: L5178Y(TK+/TK-), Metabolic Activation: NONE, Method: MICROWELL) “active; positive”.
With `COc1c(CO)c(O)cc2c1C(=O)c1ccccc1C2=O`, the mutagenic call by setting is: under setting [1], “inactive; negative”; (Test System: AMES SALMONELLA TYPHIMURIUM, Strain/Indicator: TA98, Metabolic Activation: RAT, LIVER, S-9, PCB, Method: PREINCUBATION) “inactive; negative”; under setting [3], “active; positive”; (Test System: AMES SALMONELLA TYPHIMURIUM, Strain/Indicator: TA100, Metabolic Activation: RAT, LIVER, S-9, PCB, Method: PREINCUBATION) “active; positive”.
Take `CCn1c(N)nc2c3nc(C)cnc3ccc21`: the mutagenic call (Test System: AMES SALMONELLA TYPHIMURIUM, Strain/Indicator: TA98, Metabolic Activation: RAT, LIVER, S-9, AROCLOR 1254, Method: PREINCUBATION) is “active; positive”.
For `O=c1ccc2ccc3occc3c2o1`, the mutagenic call is, setting by setting: under setting [2], “inactive; negative”; (Test System: AMES SALMONELLA TYPHIMURIUM, Strain/Indicator: TA98, Metabolic Activation: RAT, LIVER, S-9, PHENOBARBITAL, Method: STANDARD PLATE) “inactive; negative”.
Regarding `CC(=O)n1ncc(Cl)c(Cl)c1=O`, the mutagenic call was “inactive; negative” under setting [2]; “inactive; negative” (Test System: AMES SALMONELLA TYPHIMURIUM, Strain/Indicator: TA98, Metabolic Activation: RAT, LIVER, S-9, AROCLOR 1254, Method: STANDARD PLATE); “inactive; negative” under setting [4]; “inactive; negative” (Test System: AMES SALMONELLA TYPHIMURIUM, Strain/Indicator: TA100, Metabolic Activation: RAT, LIVER, S-9, AROCLOR 1254, Method: STANDARD PLATE); “inactive; negative” (Test System: AMES SALMONELLA TYPHIMURIUM, Strain/Indicator: TA1535, Metabolic Activation: NONE, Method: STANDARD PLATE); “inactive; negative” (Test System: AMES SALMONELLA TYPHIMURIUM, Strain/Indicator: TA1535, Metabolic Activation: RAT, LIVER, S-9, AROCLOR 1254, Method: STANDARD PLATE). For the same molecule, the mutagenic call is, setting by setting: (Test System: AMES SALMONELLA TYPHIMURIUM, Strain/Indicator: TA1537, Metabolic Activation: NONE, Method: STANDARD PLATE) “inactive; negative”; (Test System: AMES SALMONELLA TYPHIMURIUM, Strain/Indicator: TA1537, Metabolic Activation: RAT, LIVER, S-9, AROCLOR 1254, Method: STANDARD PLATE) “inactive; negative”.
For the molecule `Nc1c2ccccc2cc2ccccc12`, the mutagenic call was “active; positive” (Test System: AMES SALMONELLA TYPHIMURIUM, Strain/Indicator: TA98, Metabolic Activation: RAT, LIVER, S-9, AROCLOR 1254 (2%), Method: STANDARD PLATE); “active; positive” (Test System: AMES SALMONELLA TYPHIMURIUM, Strain/Indicator: TA98, Metabolic Activation: RAT, LIVER, S-9, AROCLOR 1254 (4%), Method: STANDARD PLATE); “active; positive” (Test System: AMES SALMONELLA TYPHIMURIUM, Strain/Indicator: TA100, Metabolic Activation: RAT, LIVER, S-9, AROCLOR 1254 (2%), Method: STANDARD PLATE); “inactive; negative” (Test System: AMES SALMONELLA TYPHIMURIUM, Strain/Indicator: TA1535, Metabolic Activation: RAT, LIVER, S-9, AROCLOR 1254 (2%), Method: STANDARD PLATE); “active; positive” (Test System: AMES SALMONELLA TYPHIMURIUM, Strain/Indicator: TA1537, Metabolic Activation: RAT, LIVER, S-9, AROCLOR 1254 (2%), Method: STANDARD PLATE).
Consider `Nc1ccc(C(=O)O)cc1`, for which the mutagenic call (Test System: AMES SALMONELLA TYPHIMURIUM, Strain/Indicator: TA98, Metabolic Activation: HAMSTER, LIVER, S-9, AROCLOR 1254 (10%), Method: PREINCUBATION) was “inactive; negative”; the mutagenic call under setting [1] is “inactive; negative”; the mutagenic call (Test System: AMES SALMONELLA TYPHIMURIUM, Strain/Indicator: TA98, Metabolic Activation: RAT, LIVER, S-9, AROCLOR 1254 (10%), Method: PREINCUBATION) was “inactive; negative”; the mutagenic call (Test System: AMES SALMONELLA TYPHIMURIUM, Strain/Indicator: TA100, Metabolic Activation: HAMSTER, LIVER, S-9, AROCLOR 1254 (10%), Method: PREINCUBATION) was “inactive; negative”; the mutagenic call under setting [3] is “inactive; negative”; the mutagenic call (Test System: AMES SALMONELLA TYPHIMURIUM, Strain/Indicator: TA100, Metabolic Activation: RAT, LIVER, S-9, AROCLOR 1254 (10%), Method: PREINCUBATION) was “inactive; negative”. The mutagenic call was “inactive; negative” (Test System: AMES SALMONELLA TYPHIMURIUM, Strain/Indicator: TA1535, Metabolic Activation: HAMSTER, LIVER, S-9, AROCLOR 1254 (10%), Method: PREINCUBATION); “inactive; negative” (Test System: AMES SALMONELLA TYPHIMURIUM, Strain/Indicator: TA1535, Metabolic Activation: NONE, Method: PREINCUBATION); “inactive; negative” (Test System: AMES SALMONELLA TYPHIMURIUM, Strain/Indicator: TA1535, Metabolic Activation: RAT, LIVER, S-9, AROCLOR 1254 (10%), Method: PREINCUBATION); “inactive; negative” (Test System: AMES SALMONELLA TYPHIMURIUM, Strain/Indicator: TA1537, Metabolic Activation: HAMSTER, LIVER, S-9, AROCLOR 1254 (10%), Method: PREINCUBATION); “inactive; negative” (Test System: AMES SALMONELLA TYPHIMURIUM, Strain/Indicator: TA1537, Metabolic Activation: NONE, Method: PREINCUBATION); “inactive; negative” (Test System: AMES SALMONELLA TYPHIMURIUM, Strain/Indicator: TA1537, Metabolic Activation: RAT, LIVER, S-9, AROCLOR 1254 (10%), Method: PREINCUBATION).
For the molecule `Cc1cccc(OC(=O)N(C)N=O)c1`, the mutagenic call (Test System: E. COLI WP2, Strain/Indicator: WP2, Metabolic Activation: NONE, Method: STANDARD PLATE) was “active; positive”.
